From publication PMC9703632, “The noncatalytic regions of the tyrosine kinase Tnk1 are important for activity and substrate specificity” (The Journal of Biological Chemistry, 2022)

T1: Tnk1 (thirty-eight negative kinase 1) (Homo sapiens, UniProt Q13470)
T1 construct: Tnk1^ΔCT, residues 1-510 (SAM, kinase and SH3 domains), N-terminal 6x-His and GST tags, Sf9
T1 sequence (Q13470 1-510 isoform Q13470-2): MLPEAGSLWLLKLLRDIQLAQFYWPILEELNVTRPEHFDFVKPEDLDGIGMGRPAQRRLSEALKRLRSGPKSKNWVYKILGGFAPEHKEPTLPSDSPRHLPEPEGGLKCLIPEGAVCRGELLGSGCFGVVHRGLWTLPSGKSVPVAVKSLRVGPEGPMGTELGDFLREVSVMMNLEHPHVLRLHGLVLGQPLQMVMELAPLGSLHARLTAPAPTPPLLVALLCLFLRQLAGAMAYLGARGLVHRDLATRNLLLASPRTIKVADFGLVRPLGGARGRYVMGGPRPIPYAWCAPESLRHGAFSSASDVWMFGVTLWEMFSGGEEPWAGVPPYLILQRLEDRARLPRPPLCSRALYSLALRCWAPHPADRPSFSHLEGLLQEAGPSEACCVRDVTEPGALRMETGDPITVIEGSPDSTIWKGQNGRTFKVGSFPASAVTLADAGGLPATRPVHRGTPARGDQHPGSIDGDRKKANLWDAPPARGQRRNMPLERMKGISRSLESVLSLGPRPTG

B1: Tnk1 (thirty-eight negative kinase 1) (Homo sapiens) (protein)
chain: T1 sequence (Q13470 1-510 isoform Q13470-2)
notes: Tnk1^ΔCT, residues 1-510 (SAM, kinase and SH3 domains), N-terminal 6x-His and GST tags, Sf9

Legend:
[1] = target: T1, Tnk1 (thirty-eight negative kinase 1); test: […]-ATP phosphocellulose kinase assay, WASP peptide, dose-response; type: biochemical
[2] = target: T1, Tnk1 (thirty-eight negative kinase 1); test: single-concentration ([…]) inhibition, […]-ATP phosphocellulose kinase assay, WASP peptide; type: biochemical; details: read-out: % inhibition at 10 μM
[3] = substrate: Nc1ncnc2c1ncn2[C@@H]1O[C@H](COP(=O)(O)OP(=O)(O)OP(=O)(O)O)[C@@H](O)[C@H]1O; test: purified protein; type: biochemical, Homo sapiens; details: MgCl2

Molecule | inhibition at 10 µM [2] | further results
CN1CCN(c2ccc(Nc3ncc(Cl)c(NC[C@H]4CCCO4)n3)cc2)CC1 [(R)-9b] |  | IC50 [1]: 470 nM
COc1cc2ncnc(Nc3ccc(F)c(Cl)c3)c2cc1OCCCN1CCOCC1 [gefitinib] | 30 to 40% | 
C#Cc1cccc(Nc2ncnc3cc(OCCOC)c(OCCOC)cc23)c1 [erlotinib] | 30 to 40% | 
B1 |  | Km [3]: 70 µM
